Measured values taken from paper PMC10762035, “Molecular basis of human trace amine-associated receptor 1 activation” (Nature Communications, 2024).
Numbering of substitutions follows the chain as printed. Where “and” joins values, the source holds several entries; their conditions need not be identical. Equal values may be shown once.

How the values were obtained:
hTA1 = molecular target: T1, hTA1 (Homo sapiens, UniProt Q96RJ0); test: GloSensor cAMP accumulation assay, concentration response, wild-type hTA1 in transfected HEK293T cells; type: cell-based;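 note: luminescence read after 30 min compound exposure at room temperature in cells preloaded with D-Luciferin, reflecting Gs-driven cAMP rise, efficacy scaled to the maximal β-PEA response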
T1 construct: expressed in transfected cells; host or cells: HEK293T
T1 sequence (Q96RJ0 1-339): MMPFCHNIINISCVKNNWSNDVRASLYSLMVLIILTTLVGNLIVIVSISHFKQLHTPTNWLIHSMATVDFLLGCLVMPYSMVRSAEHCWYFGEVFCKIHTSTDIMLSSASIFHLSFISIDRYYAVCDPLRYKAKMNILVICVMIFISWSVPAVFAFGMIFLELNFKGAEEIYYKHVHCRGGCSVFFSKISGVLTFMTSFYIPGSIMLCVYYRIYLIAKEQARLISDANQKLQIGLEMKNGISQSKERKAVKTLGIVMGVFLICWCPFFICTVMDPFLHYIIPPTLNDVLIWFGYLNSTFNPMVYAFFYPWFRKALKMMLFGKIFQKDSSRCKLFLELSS

hTA1 C88/178S = molecular target: T2, hTA1 C88/178S (Homo sapiens, UniProt Q96RJ0, C178S/C88S); test: GloSensor cAMP accumulation assay, C88S/C178S double mutant; type: cell-based; conditions: for Normalized Luminescence Counts (N=2): log[Compound], single replicate values
T2 construct: expressed in transfected cells; host or cells: HEK293T
T2 sequence (Q96RJ0 1-339 C88S/C178S): T1 sequence (Q96RJ0 1-339) with C88S, C178S

hTA1 I290N = molecular target: T3, hTA1 I290N (Homo sapiens, UniProt Q96RJ0, I290N); test: GloSensor cAMP accumulation assay, I290N mutant; type: cell-based;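 note: cells transiently co-expressing hTA1 and the GloSensor cAMP biosensor, luminescence read 30 min after compound addition at room temperature, efficacy scaled to the maximal β-PEA response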
T3 construct: expressed in transfected cells; host or cells: HEK293T
T3 sequence (Q96RJ0 1-339 I290N): T1 sequence (Q96RJ0 1-339) with I290N

hTA1 F195T = molecular target: T4, hTA1 F195T (Homo sapiens, UniProt Q96RJ0, F195T); test: GloSensor cAMP accumulation assay, F195T mutant; type: cell-based;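 note: cells transiently co-expressing HA-FLAG-tagged hTA1 and the GloSensor cAMP biosensor, luminescence read 30 min after agonist addition at room temperature, concentration-response fitted by nonlinear regression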
T4 construct: expressed in transfected cells; host or cells: HEK293T
T4 sequence (Q96RJ0 1-339 F195T): T1 sequence (Q96RJ0 1-339) with F195T

hTA1 T194A = molecular target: T5, hTA1 T194A (Homo sapiens, UniProt Q96RJ0, T194A); test: GloSensor cAMP accumulation assay, T194A mutant
T5 sequence (Q96RJ0 1-339 T194A): T1 sequence (Q96RJ0 1-339) with T194A

[1] = C88S, C178S, each row is one independent experiment, 3 replicates

Cc1c(F)cccc1[C@H]1COC(N)=N1 [Ro5263397]
pEC50 values, Avg (hTA1; WT hTA1, average of the two experiments, Figure 2B source data): 8.831
pEC50 values, Mean (hTA1; WT hTA1, each line an independent experiment, 3 replicates, Figure 2B source data): 8.992 and 8.671
Emax values, Mean (hTA1; WT hTA1, β-PEA = 100, each line an independent experiment, 3 replicates): 87.687 and 85.7197
Emax values, Avg (hTA1; WT, average of the experiments, β-PEA = 100): 86.7
Emax values, Avg (hTA1; WT, average of the two experiments): 86.7
Emax values, Mean (hTA1; WT, mean of each independent experiment (3 replicates), β-PEA = 100): 87.687 and 85.7197
Emax values, Mean (hTA1; WT, single experiments (3 replicates each), β-PEA = 100): 87.687 and 85.7197
pEC50 ± SEM (hTA1; wt hTA1, HEK293T, n=3): 8.83 ± 0.09
EC50 (hTA1; wt hTA1, HEK293T, n=3, read-out: EC50): 1.47 nM and 1.48 nM
Emax (hTA1; wt hTA1, relative to β-PEA): 86.7%
Span ± SEM (Emax normalized to β-PEA) (hTA1 C88/178S; C88/178S, n=2): 98.55 ± 7.35
pEC50 ± SEM (hTA1 C88/178S; C88/178S, n=2): 8.59 ± 0.09
EC50 (hTA1 C88/178S; C88/178S, n=2, read-out: EC50): 2.55 nM
pEC50 values, Mean (hTA1 C88/178S; [1]): 8.403 and 8.782
ΔEmax values (each mutant value - WT average), Mean (hTA1 C88/178S; [1]): 4.495 and 19.1933
ΔpEC50 values (each mutant value - WT average), Mean (hTA1 C88/178S; [1]): -0.428 and -0.04873
Normalized Luminescence Counts (N=2) (hTA1 C88/178S; C88S, C178S, M = -5): 100.242 and 99.2245 and 97.2457 and 143.648 and 172.345 and 97.883
Normalized Luminescence Counts (N=2) (hTA1 C88/178S; C88S, C178S, M = -5.522): 90.9136 and 85.0903 and 89.8394 and 123.862 and 148.33 and 92.2945
Normalized Luminescence Counts (N=2) (hTA1 C88/178S; C88S, C178S, M = -6): 90.1221 and 88.8217 and 95.4931 and 103.622 and 111.174 and 99.9975
Normalized Luminescence Counts (N=2) (hTA1 C88/178S; C88S, C178S, M = -6.522): 99.5072 and 94.7581 and 94.2493 and 122.049 and 117.367 and 101.508
Normalized Luminescence Counts (N=2) (hTA1 C88/178S; C88S, C178S, M = -7): 91.3094 and 97.4719 and 93.062 and 116.159 and 110.872 and 102.263
Normalized Luminescence Counts (N=2) (hTA1 C88/178S; C88S, C178S, M = -7.522): 83.1115 and 82.2069 and 77.6274 and 88.2165 and 117.82 and 93.3518
Normalized Luminescence Counts (N=2) (hTA1 C88/178S; C88S, C178S, M = -8): 58.8572 and 57.8961 and 57.8396 and 93.8049 and 106.945 and 88.8206
Normalized Luminescence Counts (N=2) (hTA1 C88/178S; C88S, C178S, M = -8.522): 53.4862 and 36.4686 and 47.8325 and 84.7426 and 92.7477 and 67.222
Normalized Luminescence Counts (N=2) (hTA1 C88/178S; C88S, C178S, M = -9): 25.2178 and 28.61 and 25.7832 and 45.3213 and 51.816 and 46.9828
Normalized Luminescence Counts (N=2) (hTA1 C88/178S; C88S, C178S, M = -9.522): 8.822 and 11.8186 and 9.84 and 21.1551 and 21.4571 and 31.5768
Normalized Luminescence Counts (N=2) (hTA1 C88/178S; C88S, C178S, M = -10): 5.826 and 5.4299 (2×) and 35.5038 (2×) and 37.3163
Normalized Luminescence Counts (N=2) (hTA1 C88/178S; C88S, C178S, M = -10.522): 1.755 and 2.038 and 3.395 and 3.6345 and 2.124 and 3.483
Normalized Luminescence Counts (N=2) (hTA1 C88/178S; C88S, C178S, M = -11): 2.49 and 1.529 and 1.585 and 16.4728 and 32.9361 and 27.0456
Normalized Luminescence Counts (N=2) (hTA1 C88/178S; C88S, C178S, M = -11.522): 0.5677 and 1.529 and 0.7373 and 0.9158 and 1.369 and 1.973
Normalized Luminescence Counts (N=2) (hTA1 C88/178S; C88S, C178S, M = -12): 0.7939 and 1.472 and 1.1331 and 4.692 and 7.713 and 6.504
Normalized Luminescence Counts (N=2) (hTA1 C88/178S; C88S, C178S, M = -12.522): 1.698 and 0.6243 and 0.7373 and -0.4436 and 0.7648 and -1.803
Emax values, Mean (hTA1 C88/178S; C88S, C178S, normalized (β-PEA = 100), each row is one independent experiment, 3 replicates): 91.1984 and 105.897
Span ± SEM (Emax normalized to β-PEA) (hTA1 I290N; I290N, n=2): 83.69 ± 1.69
pEC50 ± SEM (hTA1 I290N; I290N, n=2): 8.33 ± 0.07
EC50 (hTA1 I290N; I290N, n=2, read-out: EC50): 4.63 nM
cAMP accumulation response, single replicate values (source data, Supplementary Figure 5) (hTA1 I290N; hTA1 I290N (N=2), log[Compound], M = -5): 101.804 and 110.08 and 95.4137 and 103.531
ΔpEC50 values (each mutant value - WT average), Mean (hTA1 I290N; hTA1 I290N mutant minus WT average): -0.535 and -0.459
pEC50 values, Mean (hTA1 I290N; hTA1 I290N mutant, Figure 3B source data, each grid row a separate experiment, 3 replicates): 8.296 and 8.372
Emax values, Mean (hTA1 I290N; hTA1 I290N mutant, β-PEA set to 100, each grid row a separate experiment, 3 replicates): 85.3822 and 81.9937
pEC50 values, Mean (hTA1 F195T; F195T mutant, Figure 5B, each row one independent experiment (3 replicates)): 8.682 and 8.281
Emax values, Mean (hTA1 F195T; F195T mutant, Figure 5B, β-PEA = 100, each row one independent experiment (3 replicates)): 106.681 and 96.1093
Span ± SEM (Emax normalized to β-PEA) (hTA1 F195T; F195T, n=2): 101.40 ± 5.29
pEC50 ± SEM (hTA1 F195T; F195T, n=2): 7.68 ± 0.60
EC50 (hTA1 F195T; F195T, n=2, read-out: EC50): 20.9 nM
ΔpEC50 values (each mutant value - WT average), Mean (hTA1 T194A; T149A (so in the source) minus WT average): -1.583 and -1.53 and -1.429
pEC50 values, Mean (hTA1 T194A; T149A (so in the source), single experiments (3 replicates each)): 7.248 and 7.301 and 7.402
Emax values, Mean (hTA1 T194A; T149A (so in the source), single experiments (3 replicates each), β-PEA = 100): 143.384 and 86.8999 and 99.8921
EC50 (hTA1 T194A; T194A): 56.4 nM
Span ± SEM (Emax normalized to β-PEA) (hTA1 T194A; T194A): 110.06
pEC50 ± SEM (hTA1 T194A; T194A): 7.32 ± 0.14
reduction in potency vs wild type (hTA1 T194A; T194A): over 30 fold
